Test results: patent US20160084855A1, “Compositions and Methods for Modulation and Detection of Immune and Inflammatory Responses” (UNIVERSITY OF CONNECTICUT, priority 2013, published 2016)

How the values were obtained:
[1] = tested on: C57BL/6 (WT), TLR2−/−, IL-15−/− and IL-15Rα−/− mice with EAE; test: EAE induced with MOG35-55 in CFA plus pertussis toxin; clinical grading; assay type: in vivo, mouse; details: for Mean Day of Onset of EAE / Mean Maximum Severity of EAE / Mean Incidence of disease: PE DHC; for Mean Maximum Severity of EAE: 20-day observation; for MDD (Mean Daily Disease) / CDI (cumulative disease index): PE DHC 250 ng single i.p. Day 0; for MDD (Mean Daily Disease): 20 days; for CDI (cumulative disease index): through Day 20
Experimental: […]. In addition, mice were injected intraperitoneally (i.p.) on Day 0 with either P. gingivalis lipid or the vehicle control, 70% ethanol (EtOH). EAE was scored as: Grade 1-tail paralysis; Grade 2-weakness of hind limbs with an altered gait; Grade 3-hind limb paralysis; Grade 4-front limb paralysis; Grade 5-death.
For treatment of mice, preweighed lipids were dissolved in 70% ethanol to achieve a final concentration of 125 ng/μl, and sonicated for 2.5 minutes immediately before injection into experimental animals. This preparation was also used for drying lipids onto tissue culture wells. For direct addition to cell cultures, the lipids were dissolved in culture medium at 125 ng/μl and sonicated for 2.5 minutes to produce a liposome preparation for administration to cells in culture.
The cumulative disease index (CDI) was obtained by summing the daily average disease scores through Day 20. A mean of these daily disease scores (Mean Daily Disease) (+/−SEM) was calculated based on the 20 days of observation. The Mean Daily Disease scores were compared using the Wilcoxin Signed Rank tests for two samples. Disease incidence frequencies were compared using Chi square analysis. Values for mean maximum severity of EAE were compared using the Wilcoxin Signed Rank test. Values for mean day of onset of EAE were compared using the Student's t-test. For analysis of spinal cord populations, percentages were compared using Student's t test. Bacterial fatty acid levels in brain lipid extracts for each treatment group were evaluated using least squares linear regression analysis that included calculation of correlation coefficients. For each dose of bacterial lipid administered, linear regression analysis compared the final EAE score with the mean bacterial fatty acid recovered per 0.5 mg of brain lipid extract. The mean bacterial fatty acid levels were calculated from three replicate brain lipid determinations.
EAE was induced in female C57BL/6 (WT) mice and these mice were also injected i.p. on Day 0 with either P. gingivalis lipids or the vehicle control, 70% ethanol (EtOH). To most effectively detect effects of P. gingivalis lipids in the development of autoimmunity, less severe EAE was induced by using CFA with […] concentrations of H37RA mycobacteria (500 μg/mouse). […] Component HPLC fractions of the TL were examined individually. […] FIG. 7 illustrates one representative experiment of six similar studies, in which 250 ng of PE DHC was administered to WT mice.
Mice deficient in either IL-15 (IL-15^−/− mice) or the IL-15 receptor α (IL-15Rα^−/− mice) are known to express very few identifiable NKT cells (Kennedy et al. “Reversible defects in natural killer and memory CD8 T cell lineages in interleukin 15-deficient mice,” J. Exp. Med. 191:771-780 (2000); Lodolce et al. “IL-15 receptor maintains lymphoid homeostasis by supporting lymphocyte homing and proliferation” Immunity 9:669-676 (1998). WT mice and either IL-15^−/− or IL-15Rα^−/− mice (both on a C57BL/6 background) were immunized for EAE and given a single i.p. injection of EtOH or PE DHC on Day 0. […] FIGS. 8 and 9 show representative experiments using IL-15^−/− and IL-15Rα^−/− mice.
TLR-2 deficient (TLR2^−/−) mice were immunized with the standard EAE-inducing MOG protocol and administered a single i.p. injection of either EtOH or PE DHC on Day 0.

[2] = tested on: naïve CD4+CD25− T cells with T cell-depleted splenocytes (Tds); test: In vitro generation of Th17 T cells; assay type: cell-based, mouse; details: PE DHC 20 μg/ml sonicated liposomes; WT or TLR2−/− Tds; anti-CD3, GM-CSF, TGF-β; 5 days
Experimental: CD4+CD25− T cells (Teff) were derived from WT mice using magnetic bead purification (Miltenyi Biotec, Auburn, Calif.). T cell-depleted splenocytes (Tds) were derived from WT or TLR2^−/− mice using magnetic bead purification followed by irradiation (2600R). Teff (0.25×10^6/well) and Tds (0.75×10^6/well) were cultured in 24-well plates with anti-CD3 antibody (1 μg/ml), GM-CSF (20 ng/ml) (Pierce Inc., Thermo Fisher Scientific, Rockford, Ill.) and recombinant TGF-β (2 ng/ml) (R&D). In addition, LPS (2 μg/ml), MMP (5 μg/ml) or P. gingivalis PE DHC (20 μg/ml of sonicated liposome preparations) were added to wells to stimulate the secretion of IL-6. Cultures were harvested after 5 days, stimulated in culture for 4 hrs with phorbol myristyl acetate and ionomycin and stained for Thy1.2, intracellular IFNγ, and IL-17 and analyzed by FACS after gating on Thy 1.2+ cells.
PE DHC's ability to induce IL-6 secretion was characterized by testing its ability to induce Th17 T cell generation from cultures of naïve CD4+ CD25-T cells activated in the presence of APCs (T cell depleted splenocytes; Tds) and TGF-β. See Bettelli et al. “T(H)-17 cells in the circle of immunity and autoimmunity” Nat. Immunol. 2007, 8:345-350.

[3] = IL-15Rα−/− mice that developed EAE
[4] = IL-15−/− mice that developed EAE
[5] = TLR2−/− mice that developed EAE
[6] = Wild Type mice that developed EAE

phosphoethanolamine dihydroceramide [PE DHC]
Mean Day of Onset of EAE [1, 3]: 13.8 days | Mean Maximum Severity of EAE [1, 3]: 2.9 | Mean Incidence of disease ([1]; IL-15Rα−/− mice): 100% | MDD (Mean Daily Disease) ([1]; IL-15Rα−/− mice): 0.9 | CDI (cumulative disease index) ([1]; IL-15Rα−/− mice): 18.7 | CDI and mean daily disease compared with EtOH-treated mice ([1]; IL-15−/− and IL-15Rα−/− mice): greater than a doubling | Effect on EAE ([1]; IL-15−/− and IL-15Rα−/− mice, single i.p. injection Day 0): significantly enhanced EAE | Mean Day of Onset of EAE [1, 4]: 13.0 days | Mean Maximum Severity of EAE [1, 4]: 3.7 | Mean Incidence of disease ([1]; IL-15−/− mice): 90% | MDD (Mean Daily Disease) ([1]; IL-15−/− mice): 1.2 | CDI (cumulative disease index) ([1]; IL-15−/− mice): 24.5 | Mean Day of Onset of EAE [1, 5]: 14.7 days | Mean Maximum Severity of EAE [1, 5]: 2.9 | Mean Incidence of disease ([1]; TLR2−/− mice): 46.6% | MDD (Mean Daily Disease) ([1]; TLR2−/− mice): 0.4 | CDI (cumulative disease index) ([1]; TLR2−/− mice): 8.3 | Effect on CDI and mean daily disease ([1]; TLR2−/− mice, single i.p. injection Day 0): did not mediate enhancement of CDI or mean daily disease | CDI and mean daily disease compared with EtOH-treated mice ([1]; WT mice, 250 ng, cumulative results of six experiments): essentially a doubling | Effect on EAE disease ([1]; WT mice, 2.5 μg, 250 ng and 25 ng, 250 ng most efficient): led to enhanced disease | Onset of disease compared to EtOH-treated mice ([1]; WT mice, p=0.008): significantly earlier onset of disease | Effect on severity of EAE ([1]; WT mice, single 250 ng i.p. injection on Day 0): consistently enhanced the severity of EAE | Mean Day of Onset of EAE [1, 6]: 12.1 days | Mean Maximum Severity of EAE [1, 6]: 3.6 | Mean Incidence of disease ([1]; Wild Type mice): 75% | MDD (Mean Daily Disease) ([1]; Wild Type mice): 1.0 | CDI (cumulative disease index) ([1]; Wild Type mice): 19.8 | Generation of Th17 T cells [2]: resulted in the generation of Th17 T cells in cultures containing WT but not TLR2^−/− Tds
